Assays:
[1] = target: T1, CRAC channel (Rattus norvegicus, UniProt Q5M848); assay: CRAC channel activity / SOCE in HSC-T6; assay type: cell-based; settings: HSC-T6, 10 μM pretreatment 45 min
T1 construct: endogenous in cells; host or cells: HSC-T6
Description: (§1) Cells were co-treated with various compounds (10 μM) and TGF-β1 for 24 hours. Following this, cell lysates were harvested, and the protein expression was assessed by Western blot analysis. FIG. 3D depicts the examination of TGF-β1-induced fibronectin deposition and α-SMA expression in HCF treated with 10 μM of DMSO, BTP2, WRG-28, or Av through immunofluorescence staining. The images were captured using a confocal microscope, the Olympus FV-1000. FIG. 3E, FIG. 3F, and FIG. 3G illustrate the assessment of CRAC channel activity in HCF, MRC5, and rat HSC-T6. These cells were pretreated with 10 μM of BTP2, WRG-28, or Av for 45 min. The evaluation included measuring the second peak of each calcium wave and the rate of entry. Each bar within the figure represents the mean value derived from 77 to 91 cells for HCF, 31 to 49 cells for MRC5, and 43 to 94 cells for HSC-T6. In all the graphs, *, **, and *** denote p-values of <0.05, 0.01, and 0.001, respectively.
(§2) Cells cultured on a glass-bottom 96 well plate for 48 hours were treated with different compounds (10 μM) and Fura 2-AM (1 μM) simultaneously in a solution containing 145 mM NaCl, 2.8 mM KCl, 2 mM CaCl2, 2 mM MgCl2, 10 mM D-glucose, 10 mM HEPES, pH 7.4 for 40 minutes in the dark. […] All the images were analyzed by using IGOR Pro software. […]

[2] = target: T2, CRAC channel (Homo sapiens, UniProt Q96D31); assay: SOCE in T cells; assay type: cell-based; set-up: endogenous in cells; host or cells: HEK293T; settings: 10 μM
Description: The effects of BTP2, WRG-28, Av, and CM-4620 on SOCE were evaluated in T cells (FIG. 4A) and macrophages (FIG. 4E). Cells were cultured on glass-bottom 96-well plates and pretreated with various compounds (10 μM) while being loaded with Fura 2-AM. Subsequently, the cytosolic calcium signal waves were recorded, and the second peak of each wave and rate of entry were assessed. Each bar represents the mean value derived from, 43 to 111 cells for T cells (FIG. 4A), and 52 to 91 cells for macrophages (FIG. 4E). Cytokine induction in T cells and macrophages was conducted as described in the methods section. The levels of cytokines, including IL-2, TNF-α, and IL-6 in the culture medium were assessed using ELISA kits for T cells (FIG. 4B, FIG. 4C, and FIG. 4D) and macrophages (FIG. 4F, FIG. 4G, and FIG. 4H), respectively. Each bar represents the mean±SEM. In all the graphs, *, **, and *** denote p-values of <0.05, 0.01, and 0.001, respectively. […]
as §2

[3] = target: T2, CRAC channel; assay: CRAC channel activity / SOCE in MRC5; assay type: cell-based; set-up: endogenous in cells; settings: MRC5, 10 μM pretreatment 45 min
Description: as §1, §2

[4] = system: obstruction-induced persistent progression of renal fibrosis; assay: Kidney transcriptome (RNA sequencing, ingenuity pathway analysis) in RUUO mice; assay type: in vivo, mouse; settings: treated after the obstruction was released (7/15*d)
Excerpt: FIG. 10A and FIG. 10B display how WRG-28 and Av treatments effectively reduce RUUO-induced overwhelming fibrosis and inflammation. In FIG. 10A, total ribonucleic acid (RNA) extracts from control mice (sham) and mice treated with DMSO, WRG-28, or Av after the obstruction was released (7/15*d) underwent ingenuity pathway analysis (IPA). Both FIG. 10A and FIG. 10B illustrate large-scale transcriptome analysis, further affirming the potent effects of WRG-28 and Av in preventing and protecting kidneys from progressive fibrosis.
Total RNA was extracted from kidneys by homogenizing the samples in TRIzol reagent (Invitrogen). Chloroform was added and the homogenate separates into three layers, the upper clear aqueous containing RNA was transferred into a new tube, and RNA was precipitated by adding isopropanol. The pellets were washed with 70% ethanol and then dissolved in RNase-free water. The RNA passes the quality control, including RNA integrity number (RIN) >7, OD260/OD280 ˜1.8, etc., were sent for sequencing. Transcriptomes were analyzed by ingenuity pathway analysis (IPA).
Total ribonucleic acid (RNA) was extracted from […]: control mice (sham) and mice that received treatments with DMSO, WRG-28, or Av after the obstruction was released (7/15*d). Transcriptomes were then analyzed by ingenuity pathway analysis (IPA). […]

T2 sequence (Q96D31 whole entry): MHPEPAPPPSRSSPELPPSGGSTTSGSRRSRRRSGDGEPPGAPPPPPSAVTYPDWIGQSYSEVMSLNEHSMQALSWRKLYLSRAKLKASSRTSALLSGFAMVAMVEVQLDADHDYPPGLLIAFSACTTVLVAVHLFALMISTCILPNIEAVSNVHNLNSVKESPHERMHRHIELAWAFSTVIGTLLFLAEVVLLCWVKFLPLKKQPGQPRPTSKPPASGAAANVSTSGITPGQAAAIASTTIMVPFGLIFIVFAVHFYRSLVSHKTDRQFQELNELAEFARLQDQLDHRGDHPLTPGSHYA
T1 sequence (Q5M848 whole entry): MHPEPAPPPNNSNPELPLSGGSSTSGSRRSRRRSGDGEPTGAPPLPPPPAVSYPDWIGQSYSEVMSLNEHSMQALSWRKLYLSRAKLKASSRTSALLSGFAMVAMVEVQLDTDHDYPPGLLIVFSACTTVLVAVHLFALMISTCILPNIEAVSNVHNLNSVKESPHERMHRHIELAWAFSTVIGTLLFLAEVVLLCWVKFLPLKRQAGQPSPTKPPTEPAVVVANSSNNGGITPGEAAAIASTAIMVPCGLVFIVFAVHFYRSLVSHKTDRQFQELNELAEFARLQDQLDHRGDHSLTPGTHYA

- SOCE [1]: notably reduced
- SOCE in T cells [2]: higher efficacy compared to Av
- SOCE [3]: notably reduced
SMILES: CCNS(=O)(=O)c1ccc(COc2ccc3nc4ccc(=O)cc-4oc3c2)cc1 [WRG-28]
- inflammatory responses and fibrotic signaling pathways (transcriptome, IPA) [4]: reduced
